The values below come from patent US10759783B2, “Biaryl inhibitors of Bruton'S tyrosine kinase” (BIOGEN MA INC., priority 2013, dated 2020).

Structures are written as SMILES. Some results are limits rather than exact numbers.

For one assay, the target named is T1, BTK enzyme (Homo sapiens, UniProt Q06187).
T1 construct: purchased Upstate 14-552
Briefly: In vitro BTK kinase assay: BTK-POLYGAT-LS assay. Format: biochemical. The settings on record: ATP 10 μM, read-out: IC50 (10uMATP). Summed up:
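Human BTK activity was measured with final 10 μM ATP and 100 nM polyGAT substrate in pH 7.5 Tris buffer with 10 mM MgCl2, DTT, Triton X-100 and casein.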

For assay [1], the target named is BTK (phospho-BTK) in human whole blood (Homo sapiens, UniProt Q06187). Briefly: In vitro PD assay in human whole blood (pBTK assay).
BTK (phospho-BTK) in human whole blood, sequence (Q06187 whole entry): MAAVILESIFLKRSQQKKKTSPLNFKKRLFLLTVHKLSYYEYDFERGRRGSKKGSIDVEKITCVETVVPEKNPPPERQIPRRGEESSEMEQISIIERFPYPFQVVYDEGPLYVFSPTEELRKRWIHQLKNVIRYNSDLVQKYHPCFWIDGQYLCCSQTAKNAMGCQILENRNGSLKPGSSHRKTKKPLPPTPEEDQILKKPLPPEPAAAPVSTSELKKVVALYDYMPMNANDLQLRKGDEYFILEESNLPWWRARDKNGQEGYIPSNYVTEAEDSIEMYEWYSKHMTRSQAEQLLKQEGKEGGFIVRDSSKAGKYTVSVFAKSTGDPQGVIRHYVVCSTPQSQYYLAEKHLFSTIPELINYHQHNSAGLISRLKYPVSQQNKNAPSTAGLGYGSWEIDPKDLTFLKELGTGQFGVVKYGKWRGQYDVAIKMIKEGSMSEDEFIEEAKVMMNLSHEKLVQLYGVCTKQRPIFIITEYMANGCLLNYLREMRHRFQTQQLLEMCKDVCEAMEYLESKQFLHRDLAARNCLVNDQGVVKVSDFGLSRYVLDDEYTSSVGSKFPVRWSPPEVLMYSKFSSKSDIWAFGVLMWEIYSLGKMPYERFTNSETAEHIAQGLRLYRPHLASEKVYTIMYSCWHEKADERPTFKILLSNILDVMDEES

T1 sequence (Q06187 whole entry): as above

On to `Cc1cc(-c2ccnc(Nc3cnn(C4CCN(S(C)(=O)=O)CC4)c3)n2)ccc1CNC(=O)c1cnc(C(C)(C)C)s1` [Example I-47, 2-(tert-butyl)-N-(2-methyl-4-(2-((1-(1-(methylsulfonyl)piperidin-4-yl)-1H-pyrazol-4-yl)amino)pyrimidin-4-yl)benzyl)thiazole-5-carboxamide], for which the IC50 at BTK enzyme was below 10 nM; in assay [1], 500 to 1500 nM.
Turning to `Cc1cc(-c2ccnc(Nc3ccc(N4CCN(C)CC4)cn3)n2)ccc1CNC(=O)c1cnc(C(C)(C)C)s1` [Example I-62, 2-(tert-butyl)-N-(2-methyl-4-(2-((5-(4-methylpiperazin-1-yl)pyridin-2-yl)amino)pyrimidin-4-yl)benzyl)thiazole-5-carboxamide], the IC50 at BTK enzyme is below 10 nM; in assay [1], 1500 to 10000 nM.
As to `CCN1CCn2nc(Nc3cc(-c4ccc(CNC(=O)c5cnn(C(C)(C)C)c5)c(C)c4)ncn3)cc2C1` [Example I-232, 1-(tert-butyl)-N-(4-(6-((5-ethyl-4,5,6,7-tetrahydropyrazolo[1,5-a]pyrazin-2-yl)amino)pyrimidin-4-yl)-2-methylbenzyl)-1H-pyrazole-4-carboxamide], the IC50 at BTK enzyme was below 10 nM; in assay [1], below 500 nM.
`CCn1cc(Nc2nccc(-c3ccc4c(c3)CCCCC4NC(=O)N3CC(OC(C)(C)C)C3)n2)cn1` (centres unmarked) [Example I-173, 3-(tert-butoxy)-N-(2-(2-((1-ethyl-1H-pyrazol-4-yl)amino)pyrimidin-4-yl)-6,7,8,9-tetrahydro-5H-benzo[7]annulen-5-yl)azetidine-1-carboxamide]: the IC50 at BTK enzyme was below 10 nM; in assay [1] it was below 500 nM.
`CC(C)OC1CN(C(=O)NC2CCCCc3cc(-c4ccnc(Nc5cnn(CCO)c5)n4)ccc32)C1` (centres unmarked) [Example I-168, N-(2-(2-((1-(2-hydroxyethyl)-1H-pyrazol-4-yl)amino)pyrimidin-4-yl)-6,7,8,9-tetrahydro-5H-benzo[7]annulen-5-yl)-3-isopropoxyazetidine-1-carboxamide]: the IC50 at BTK enzyme is below 10 nM; in assay [1], below 500 nM.
Taken in the same sequence, the figures for `Cc1cc(-c2ccnc(Nc3cnn(C[C@H](N)CO)c3)n2)ccc1CNC(=O)c1cnc(C(C)(C)C)s1` [Example I-131, (S)—N-(4-(2-((1-(2-amino-3-hydroxypropyl)-1H-pyrazol-4-yl)amino)pyrimidin-4-yl)-2-methylbenzyl)-2-(tert-butyl)thiazole-5-carboxamide] were below 10 nM and 500 to 1500 nM.
For `Cc1cc(-c2cc(Nc3cc4n(n3)CCN(CCO)C4)ncn2)ccc1CNC(=O)c1cnc(C(C)(C)C)s1` [Example I-271, 2-tert-butyl-N-[[4-[6-[[5-(2-hydroxyethyl)-6,7-dihydro-4H-pyrazolo[1,5-a]pyrazin-2-yl]amino]pyrimidin-4-yl]-2-methyl-phenyl]methyl]thiazole-5-carboxamide], the concentration for half-maximal inhibition (IC50) is below 10 nM on BTK enzyme and below 500 nM in assay [1].
Take `Cc1cc(-c2ccnc(Nc3cnn([C@H]4CCNC4)c3)n2)ccc1CNC(=O)c1cnc(C(C)(C)C)s1` [Example I-124, (S)-2-(tert-butyl)-N-(2-methyl-4-(2-((1-(pyrrolidin-3-yl)-1H-pyrazol-4-yl)amino)pyrimidin-4-yl)benzyl)thiazole-5-carboxamide]: the IC50 at BTK enzyme is below 10 nM; in assay [1] it was below 500 nM.
As for `Cc1cc(-c2ccnc(Nc3cnn(C)c3)n2)ccc1CNC(=O)N1CCC(C(C)(C)C)C1` (centres unmarked) [Example I-224, 3-(tert-butyl)-N-(2-methyl-4-(2-((1-methyl-1H-pyrazol-4-yl)amino)pyrimidin-4-yl)benzyl)pyrrolidine-1-carboxamide], the IC50 was below 10 nM at BTK enzyme and below 500 nM in assay [1].
Regarding `Cn1cc(Nc2nccc(-c3ccc4c(c3)CCCC4NC(=O)c3cc4c(s3)CCOC4)n2)cn1` (centres unmarked) [Example I-95, N-(6-(2-((1-methyl-1H-pyrazol-4-yl)amino)pyrimidin-4-yl)-1,2,3,4-tetrahydronaphthalen-1-yl)-6,7-dihydro-4H-thieno[3,2-c]pyran-2-carboxamide], the IC50 is below 10 nM on BTK enzyme and 500 to 1500 nM in assay [1].
With `COC1CN(C(=O)NCc2ccc(-c3ccnc(Nc4cnn(C)c4)n3)cc2C)C1` [Example I-300, 3-methoxy-N-[[2-methyl-4-[2-[(1-methylpyrazol-4-yl)amino]pyrimidin-4-yl]phenyl]methyl]azetidine-1-carboxamideacid], the IC50 was 10 to 99 nM on BTK enzyme and below 500 nM in assay [1].
As to `Cc1cc(-c2ccnc(Nc3cnn(C)c3)n2)ccc1CNC(=O)N1CC(OCCF)C1` [Example I-307, 3-(2-fluoroethoxy)-N-[[2-methyl-4-[2-[(1-methylpyrazol-4-yl)amino]pyrimidin-4-yl]phenyl]methyl]azetidine-1-carboxamide], the IC50 on BTK enzyme is below 10 nM; in assay [1] it was below 500 nM.
In the same order, the values of `COCCc1cc(-c2ccnc(Nc3cnn4c3CCC4)n2)ccc1CNC(=O)N1CC[C@@H](C(C)(C)C)C1` [Example I-325, (3S)-3-tert-butyl-N-[[4-[2-(5,6-dihydro-4H-pyrrolo[1,2-b]pyrazol-3-ylamino)pyrimidin-4-yl]-2-(2-methoxyethyl)phenyl]methyl]pyrrolidine-1-carboxamide] are below 10 nM and below 500 nM.
For `COCCn1cc(Nc2nccc(-c3ccc(CNC(=O)c4cnc(C(C)(C)C)s4)c(C)c3)n2)cn1` [Example I-39, 2-(tert-butyl)-N-(4-(2-((1-(2-methoxyethyl)-1H-pyrazol-4-yl)amino)pyrimidin-4-yl)-2-methylbenzyl)thiazole-5-carboxamide], the results for the IC50 (at BTK enzyme; in assay [1]) were below 10 nM and below 500 nM, respectively.
In the case of `Cc1cc(-c2ccnc(Nc3cnn(C)c3)n2)ccc1CN1CCc2c(cnn2C(C)(C)C)C1=O` [Example I-192, 1-(tert-butyl)-5-(2-methyl-4-(2-((1-methyl-1H-pyrazol-4-yl)amino)pyrimidin-4-yl)benzyl)-6,7-dihydro-1H-pyrazolo[4,3-c]pyridin-4(5H)-one], the IC50 at BTK enzyme is below 10 nM; in assay [1], below 500 nM.
In the same order, the values of `Cc1cc(-c2cc(Nc3ccc(N4CCN(C)CC4)cn3)ncn2)ccc1CNC(=O)N1CC(OC(C)(C)C)C1` [Example I-251, 3-tert-butoxy-N-[[2-methyl-4-[6-[[5-(4-methylpiperazin-1-yl)-2-pyridyl]amino]pyrimidin-4-yl]phenyl]methyl]azetidine-1-carboxamide] are below 10 nM and below 500 nM.
With `CC(C)OC1CN(C(=O)NCc2ccc(-c3ccnc(Nc4cnn(C(C)C)c4)n3)cc2C(F)(F)F)C1` [Example I-299, 3-isopropoxy-N-[[4-[2-[(1-isopropylpyrazol-4-yl)amino]pyrimidin-4-yl]-2-(trifluoromethyl)phenyl]methyl]azetidine-1-carboxamide], the IC50 at BTK enzyme is below 10 nM; in assay [1], below 500 nM.
In the same order, the values of `Cc1cc(-c2cc(Nc3cc4n(n3)CCN(C)C4C)ncn2)ccc1CNC(=O)c1cnn(C(C)(C)C)c1` (centres unmarked) [Example I-282, 1-tert-butyl-N-[[4-[6-[(4,5-dimethyl-6,7-dihydro-4H-pyrazolo[1,5-a]pyrazin-2-yl)amino]pyrimidin-4-yl]-2-methyl-phenyl]methyl]pyrazole-4-carboxamide] are below 10 nM and below 500 nM.
As for `Cc1cc(-c2ccnc(Nc3cnn(C)c3)n2)ccc1CN1Cc2cc(C3CC3)sc2C1=O` [Example I-13, 2-cyclopropyl-5-(2-methyl-4-(2-((1-methyl-1H-pyrazol-4-yl)amino)pyrimidin-4-yl)benzyl)-4H-thieno[2,3-c]pyrrol-6(5H)-one], the IC50 at BTK enzyme was below 10 nM; in assay [1], 1500 to 10000 nM.
As to `Cc1cc(-c2ccnc(Nc3cnn([C@H]4CCN(C)C4)c3)n2)ccc1CNC(=O)c1cnc(C(C)(C)C)s1` [Example I-125, (S)-2-(tert-butyl)-N-(2-methyl-4-(2-((1-(1-methylpyrrolidin-3-yl)-1H-pyrazol-4-yl)amino)pyrimidin-4-yl)benzyl)thiazole-5-carboxamide], the IC50 was below 10 nM on BTK enzyme and below 500 nM in assay [1].
Take `Cc1cc(-c2cc(Nc3cc4n(n3)CCCNC4)ncn2)ccc1CNC(=O)N1CC(OC(C)C)C1` [Example I-273, 3-isopropoxy-N-[[2-methyl-4-[6-(5,6,7,8-tetrahydro-4H-pyrazolo[1,5-a][1,4]diazepin-2-ylamino)pyrimidin-4-yl]phenyl]methyl]azetidine-1-carboxamide]: the values for the IC50 (on BTK enzyme; in assay [1]) were below 10 nM and below 500 nM, respectively.
For `Cc1cc(-c2cc(Nc3cc4n(n3)CCOC4)ncn2)ccc1CNC(=O)N1CCC(C(C)(C)C)C1` (centres unmarked) [Example I-288, 3-tert-butyl-N-[[4-[6-(6,7-dihydro-4H-pyrazolo[5,1-c][1,4]oxazin-2-ylamino)pyrimidin-4-yl]-2-methyl-phenyl]methyl]pyrrolidine-1-carboxamide], the IC50 on BTK enzyme is below 10 nM; in assay [1], below 500 nM.
Consider `Cc1cc(-c2cc(Nc3cnn(C)c3)ncn2)ccc1CNC(=O)c1cnc(C(C)(C)C)s1` [Example I-64, 2-(tert-butyl)-N-(2-methyl-4-(6-((1-methyl-1H-pyrazol-4-yl)amino)pyrimidin-4-yl)benzyl)thiazole-5-carboxamide], for which the IC50 at BTK enzyme is below 10 nM; in assay [1] it was 1500 to 10000 nM.
As to `CN1CC(n2cc(Nc3nccc(-c4ccc(CNC(=O)N5CC(OC(C)(C)C)C5)c(C(F)(F)F)c4)n3)cn2)C1` [Example I-206, 3-(tert-butoxy)-N-(4-(2-((1-(1-methylazetidin-3-yl)-1H-pyrazol-4-yl)amino)pyrimidin-4-yl)-2-(trifluoromethyl)benzyl)azetidine-1-carboxamide], the results for the IC50 (on BTK enzyme; in assay [1]) were below 10 nM and below 500 nM, respectively.
Take `Cc1cc(-c2ccnc(Nc3cnn(C4CCNCC4)c3)n2)ccc1CNC(=O)c1cnc(C(C)(C)C)s1` [Example I-45, 2-(tert-butyl)-N-(2-methyl-4-(2-((1-(piperidin-4-yl)-1H-pyrazol-4-yl)amino)pyrimidin-4-yl)benzyl)thiazole-5-carboxamide]: the IC50 was below 10 nM on BTK enzyme and below 500 nM in assay [1].
